From patent US8076338B2, “Kinase modulators and methods of use” (Exelixis, Inc., priority 2004, dated 2011) come the findings set out here.

The target of one assay is p70S6K (Homo sapiens, UniProt P23443). Put plainly: Luciferase-coupled chemiluminescence kinase assay (ATP consumption). It is filed as biochemical. The conditions noted are these: Table 1; class symbols per key. The gist of the method:
(§1)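 Activity is read as ATP depletion: luciferase-luciferin reagent added after a 3 h ambient-temperature kinase reaction, with total ATP use limited to 25-60%. Before ATP addition, 2.5-5 nM kinase and compound were preincubated 30 min in Tris pH 7.5/MgCl2/TX-100/DTT buffer; […].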

For another assay, the target named is AktK (Homo sapiens, UniProt P31749). Described as above. It is filed as biochemical. The note with it: Table 1; class symbols per key; read-out: AKT-1 IC50. Summed up:
as §1

Some results are limits rather than exact numbers.

Chain of AktK (P31749 whole entry): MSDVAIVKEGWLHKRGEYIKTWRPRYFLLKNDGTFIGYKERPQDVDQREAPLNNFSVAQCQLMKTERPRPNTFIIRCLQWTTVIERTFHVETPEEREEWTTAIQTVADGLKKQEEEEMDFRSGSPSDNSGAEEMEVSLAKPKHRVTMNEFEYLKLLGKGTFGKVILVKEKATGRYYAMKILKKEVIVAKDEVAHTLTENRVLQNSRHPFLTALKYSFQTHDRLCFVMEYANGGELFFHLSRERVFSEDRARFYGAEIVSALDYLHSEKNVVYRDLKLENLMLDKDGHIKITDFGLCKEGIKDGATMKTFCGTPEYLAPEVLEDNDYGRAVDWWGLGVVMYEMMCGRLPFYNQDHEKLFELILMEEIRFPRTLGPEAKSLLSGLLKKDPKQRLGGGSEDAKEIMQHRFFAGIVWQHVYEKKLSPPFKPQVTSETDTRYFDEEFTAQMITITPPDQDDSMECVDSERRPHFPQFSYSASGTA
Chain of p70S6K (P23443 whole entry): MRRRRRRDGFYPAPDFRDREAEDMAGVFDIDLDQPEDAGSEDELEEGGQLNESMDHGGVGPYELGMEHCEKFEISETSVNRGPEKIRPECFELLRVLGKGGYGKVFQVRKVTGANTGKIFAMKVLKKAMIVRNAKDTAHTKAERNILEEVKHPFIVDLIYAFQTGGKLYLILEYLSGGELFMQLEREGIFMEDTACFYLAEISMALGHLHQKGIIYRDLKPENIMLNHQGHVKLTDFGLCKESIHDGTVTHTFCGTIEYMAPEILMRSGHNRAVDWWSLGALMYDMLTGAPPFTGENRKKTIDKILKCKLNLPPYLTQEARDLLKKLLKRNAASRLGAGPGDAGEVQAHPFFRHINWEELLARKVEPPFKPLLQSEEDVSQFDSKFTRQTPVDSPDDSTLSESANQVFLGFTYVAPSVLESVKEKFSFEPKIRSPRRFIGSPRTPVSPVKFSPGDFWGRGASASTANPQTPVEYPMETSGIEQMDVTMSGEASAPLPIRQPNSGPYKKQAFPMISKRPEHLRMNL

For `Cc1c(NCCN2CCCC2)cc(C(=O)N2CCCC2)cc1N1CCN(c2ncnc3[nH]nc(Br)c23)CC1` [Entry 201, 3-[4-(3-bromo-1H-pyrazolo[3,4-d]pyrimidin-4-yl)piperazin-1-yl]-2-methyl-5-(pyrrolidin-1-ylcarbonyl)-N-(2-pyrrolidin-1-ylethyl)aniline], the figures for the IC50 against p70S6K and at AktK were less than 100 nM and 100 to 1000 nM, respectively.

Regarding `CNC(=O)c1cc(NCCN2CCCC2)c(C)c(N2CCN(c3ncnc4[nH]nc(Br)c34)CC2)c1` [Entry 202, 3-[4-(3-bromo-1H-pyrazolo[3,4-d]pyrimidin-4-yl)piperazin-1-yl]-N,4-dimethyl-5-[(2-pyrrolidin-1-ylethyl)amino]benzamide], the results for the IC50 against p70S6K and on AktK were less than 100 nM and 100 to 1000 nM, respectively.

Take `Cc1c(NCCN2CCCC2)cc(C(=O)Nc2ccc(Cl)cc2)cc1N1CCN(c2ncnc3[nH]nc(Br)c23)CC1` [Entry 203, 3-[4-(3-bromo-1H-pyrazolo[3,4-d]pyrimidin-4-yl)piperazin-1-yl]-N-(4-chlorophenyl)-4-methyl-5-[(2-pyrrolidin-1-ylethyl)amino]benzamide]: the IC50 on p70S6K and on AktK was less than 100 nM each time.

In the case of `Cc1c(NCCN2CCCC2)cc(C(=O)Nc2ccccc2Cl)cc1N1CCN(c2ncnc3[nH]nc(Br)c23)CC1` [Entry 204, 3-[4-(3-bromo-1H-pyrazolo[3,4-d]pyrimidin-4-yl)piperazin-1-yl]-N-(2-chlorophenyl)-4-methyl-5-[(2-pyrrolidin-1-ylethyl)amino]benzamide], the IC50 against p70S6K and on AktK was less than 100 nM throughout.

In the case of `Cc1c(NCCN2CCCC2)cc(OCC2CC2)cc1N1CCN(c2ncnc3[nH]nc(Br)c23)CC1` [Entry 205, 3-[4-(3-bromo-1H-pyrazolo[3,4-d]pyrimidin-4-yl)piperazin-1-yl]-5-[(cyclopropylmethyl)oxy]-2-methyl-N-(2-pyrrolidin-1-ylethyl)aniline], the IC50 against p70S6K and on AktK was less than 100 nM each time.

Take `Cc1c(NCCN2CCCC2)cc(OCCC(C)C)cc1N1CCN(c2ncnc3[nH]nc(Br)c23)CC1` [Entry 206, 3-[4-(3-bromo-1H-pyrazolo[3,4-d]pyrimidin-4-yl)piperazin-1-yl]-2-methyl-5-[(3-methylbutyl)oxy]-N-(2-pyrrolidin-1-ylethyl)aniline]: the IC50 against p70S6K and at AktK was less than 100 nM each time.

Take `CCC(CC)COc1cc(NCCN2CCCC2)c(C)c(N2CCN(c3ncnc4[nH]nc(Br)c34)CC2)c1` [Entry 207, 3-[4-(3-bromo-1H-pyrazolo[3,4-d]pyrimidin-4-yl)piperazin-1-yl]-5-[(2-ethylbutyl)oxy]-2-methyl-N-(2-pyrrolidin-1-ylethyl)aniline]: the IC50 on p70S6K and at AktK was less than 100 nM in each case.

With `Cc1c(NCCN2CCCC2)cc(C(=O)NC(C)C)cc1N1CCN(c2ncnc3[nH]nc(Br)c23)CC1` [Entry 209, 3-[4-(3-bromo-1H-pyrazolo[3,4-d]pyrimidin-4-yl)piperazin-1-yl]-4-methyl-N-(1-methylethyl)-5-[(2-pyrrolidin-1-ylethyl)amino]benzamide], the IC50 on p70S6K and at AktK was less than 100 nM in each case.

Take `Cc1c(NCCN2CCCC2)cc(C(=O)N(C)C(C)C)cc1N1CCN(c2ncnc3[nH]nc(Br)c23)CC1` [Entry 210, 3-[4-(3-bromo-1H-pyrazolo[3,4-d]pyrimidin-4-yl)piperazin-1-yl]-N,4-dimethyl-N-(1-methylethyl)-5-[(2-pyrrolidin-1-ylethyl)amino]benzamide]: the IC50 (commonly the midpoint of a concentration-inhibition curve) on p70S6K was less than 100 nM; on AktK, 100 to 1000 nM.

Regarding `Cc1c(NCCN2CCCC2)cc(OCC2CCC2)cc1N1CCN(c2ncnc3[nH]nc(Br)c23)CC1` [Entry 211, 3-[4-(3-bromo-1H-pyrazolo[3,4-d]pyrimidin-4-yl)piperazin-1-yl]-5-[(cyclobutylmethyl)oxy]-2-methyl-N-(2-pyrrolidin-1-ylethyl)aniline], the IC50 at p70S6K and on AktK was less than 100 nM throughout.

`CCOc1cc(NCCN2CCCC2)c(C)c(N2CCN(c3ncnc4[nH]nc(Br)c34)CC2)c1` [Entry 212, 3-[4-(3-bromo-1H-pyrazolo[3,4-d]pyrimidin-4-yl)piperazin-1-yl]-5-(ethyloxy)-2-methyl-N-(2-pyrrolidin-1-ylethyl)aniline]: the IC50 on p70S6K and at AktK was less than 100 nM in each case.

On to `Cc1ccc(C(=O)NCCN(C)C)cc1N1CCN(c2ncnc3[nH]nc(Br)c23)CC1` [Entry 213, 3-[4-(3-bromo-1H-pyrazolo[3,4-d]pyrimidin-4-yl)piperazin-1-yl]-N-[2-(dimethylamino)ethyl]-4-methylbenzamide], for which the IC50 against p70S6K is less than 100 nM; on AktK, 1000 to 10000 nM.

`Cc1c(NCCN2CCCC2)cc(C(=O)NC(C)(C)C)cc1N1CCN(c2ncnc3[nH]nc(Br)c23)CC1` [Entry 214, 3-[4-(3-bromo-1H-pyrazolo[3,4-d]pyrimidin-4-yl)piperazin-1-yl]-N-(1,1-dimethylethyl)-4-methyl-5-[(2-pyrrolidin-1-ylethyl)amino]benzamide]: the IC50 at p70S6K and at AktK was less than 100 nM in each case.

As to `Cc1c(NCCN2CCCC2)cc(C(=O)Nc2cccnc2)cc1N1CCN(c2ncnc3[nH]nc(Br)c23)CC1` [Entry 215, [4-(3-bromo-1H-pyrazolo[3,4-d]pyrimidin-4-yl)piperazin-1-yl]-4-methyl-N-pyridin-3-yl-5-[(2-pyrrolidin-1-ylethyl)amino]benzamide], the IC50 on p70S6K and on AktK was less than 100 nM each time.

With `Cc1c(NCCN2CCCC2)cc(OCC(C)(C)F)cc1N1CCN(c2ncnc3[nH]nc(Br)c23)CC1` [Entry 216, 3-[4-(3-bromo-1H-pyrazolo[3,4-d]pyrimidin-4-yl)piperazin-1-yl]-5-[(2-fluoro-2-methylpro-pyl)oxy]-2-methyl-N-(2-pyrrolidin-1-ylethyl)aniline], the IC50 against p70S6K and at AktK was less than 100 nM in each case.

For `Cc1c(NCCN2CCCC2)cc(OCC2CCCCC2)cc1N1CCN(c2ncnc3[nH]nc(Br)c23)CC1` [Entry 217, 3-[4-(3-bromo-1H-pyrazolo[3,4-d]pyrimidin-4-yl)piperazin-1-yl]-5-[(cyclohexylmethyl)oxy]-2-methyl-N-(2-pyrrolidin-1-ylethyl)aniline], the IC50 against p70S6K is less than 100 nM; at AktK it was 100 to 1000 nM.

As to `Cc1c(NCCN2CCCC2)cc(OCC2CCCC2)cc1N1CCN(c2ncnc3[nH]nc(Br)c23)CC1` [Entry 218, 3-[4-(3-bromo-1H-pyrazolo[3,4-d]pyrimidin-4-yl)piperazin-1-yl]-5-[(cyclopentylmethyl)oxy]-2-methyl-N-(2-pyrrolidin-1-ylethyl)aniline], the IC50 on p70S6K and on AktK was less than 100 nM throughout.

As for `CCNC(=O)c1cc(NCCN2CCCC2)c(C)c(N2CCN(c3ncnc4[nH]nc(Br)c34)CC2)c1` [Entry 219, 3-[4-(3-bromo-1H-pyrazolo[3,4-d]pyrimidin-4-yl)piperazin-1-yl]-N-ethyl-4-methyl-5-[(2-pyrrolidin-1-ylethyl)amino]benzamide], the IC50 at p70S6K and at AktK was less than 100 nM throughout.

For the compound `Cc1c(NCCN2CCCC2)cc(OC(C)C)cc1N1CCN(c2ncnc3[nH]nc(Br)c23)CC1` [Entry 220, 3-[4-(3-bromo-1H-pyrazolo[3,4-d]pyrimidin-4-yl)piperazin-1-yl]-2-methyl-5-[(1-methylethyl)oxy]-N-(2-pyrrolidin-1-ylethyl)aniline], the IC50 at p70S6K and on AktK was less than 100 nM throughout.

In the case of `Cc1c(NCCN2CCCC2)cc(OCC(C)(C)C)cc1N1CCN(c2ncnc3[nH]nc(Br)c23)CC1` [Entry 221, 3-[4-(3-bromo-1H-pyrazolo[3,4-d]pyrimidin-4-yl)piperazin-1-yl]-5-[(2,2-dimethylpropyl)oxy]-2-methyl-N-(2-pyrrolidin-1-ylethyl)aniline], the IC50 on p70S6K and at AktK was less than 100 nM each time.

For `Cc1c(NCCN2CCCC2)cc(OCC2CCCO2)cc1N1CCN(c2ncnc3[nH]nc(Br)c23)CC1` (centres unmarked) [Entry 222, 3-[4-(3-bromo-1H-pyrazolo[3,4-d]pyrimidin-4-yl)piperazin-1-yl]-2-methyl-N-(2-pyrrolidin-1-ylethyl)-5-[(tetrahydrofuran-2-ylmethyl)oxy]aniline], the IC50 at p70S6K and on AktK was less than 100 nM each time.

`COCCOc1cc(NCCN2CCCC2)c(C)c(N2CCN(c3ncnc4[nH]nc(Br)c34)CC2)c1` [Entry 223, 3-[4-(3-bromo-1H-pyrazolo[3,4-d]pyrimidin-4-yl)piperazin-1-yl]-2-methyl-5-{[2-(methyl-oxy)ethyl]oxy}-N-(2-pyrrolidin-1-ylethyl)aniline]: the results for the IC50 against p70S6K and on AktK were less than 100 nM and 100 to 1000 nM, respectively.

Turning to `CCCOc1cc(NCCN2CCCC2)c(C)c(N2CCN(c3ncnc4[nH]nc(Br)c34)CC2)c1` [Entry 224, 3-[4-(3-bromo-1H-pyrazolo[3,4-d]pyrimidin-4-yl)piperazin-1-yl]-2-methyl-5-(propyloxy)-N-(2-pyrrolidin-1-ylethyl)aniline], the IC50 at p70S6K and on AktK was less than 100 nM in each case.

With `Cc1c(NCCN(C)C)cc(C(=O)Nc2ccccc2)cc1N1CCN(c2ncnc3[nH]nc(Br)c23)CC1` [Entry 225, 3-[4-(3-bromo-1H-pyrazolo[3,4-d]pyrimidin-4-yl)piperazin-1-yl]-5-{[2-(dimethylamino)eth-yl]amino}-4-methyl-N-phenylbenzamide], the IC50 against p70S6K and on AktK was less than 100 nM throughout.

Consider `Cc1c(NCCN(C)C)cc(OCC(C)(C)F)cc1N1CCN(c2ncnc3[nH]nc(Br)c23)CC1` [Entry 226, N′-{3-[4-(3-bromo-1H-pyrazolo[3,4-d]pyrimidin-4-yl)piperazin-1-yl]-5-[(2-fluoro-2-methylpropyl)oxy]-2-methylphenyl}-N,N-dimethyl-ethane-1,2-diamine], for which the IC50 at p70S6K and on AktK was less than 100 nM in each case.
